What was measured:
PARP1 = conditions: read-out: IC50 for PARP1 inhibition; ref [3], [31]; cited from earlier work
[1] = Carboplatin one-compartment plasma PK model in mice; format: in vivo, beige SCID mice
Experimental: The PK of carboplatin in mice was assessed using a one-compartment model with bolus intravenous injection.
e) Supplements of the PK-model development.

[2] = Carboplatin plasma PK in patients of phase 1 trial (three-compartment model); format: in vivo
Experimental: (§1) Carboplatin and platinum adducts were determined in a limited number of blood samples from a previously presented phase 1 clinical trial (NCT02358200). […] In the case of grade 3 or grade 4 toxicity, carboplatin and/or talazoparib doses were held until below grade 1 and resumed at a lower dose level. Blood samples were obtained from a limited number of patients during cycle 1 day 1 (prior to talazoparib dosing) and cycle 2 day 1 pre-dose and up to 24 h post dose, and PBMCs were derived at day 15 post dose, DNA was extracted as described in Additional file 1d and platinum adducts were quantified by ICP-MS (Additional file 1b).
A three-compartment model best described carboplatin in plasma and no variability between patients was observed (Additional file 1: Figure S12 and Table S2). In further analyses, we assumed that the carboplatin plasma PK profile in the other 16 patients was similar to that the first 3 patients: in these patients glomerular filtration rate (GFR) ranged from 60 to 151 mL/min and BSA values ranged from 1.58 to 2.0 m^2. […] [34].
(§2) Supplementary Table 2: PK patients estimates carboplatin and platinum adducts Structural model PK Estimat RS
(§3) Inter-individual variability on Platinum adduct formation (RPT) 317% proportional residual error plasma carboplatin 28% 26 […]
(§4) proportional residual error adduct formation 110% 6%
(§5) Platinum adduct formation:
(§6) CL=clearance, V=volume of distribution, KA= rate of absorption, RPT= ratio of carboplatin adduct formation, KPT= rate of carboplatin adduct formation, gBRCA = germline BRCA carrier […]
(§7) (also on this page, place not known: ( )adductsC−×× plasmaCRPT KPT=dt dCadducts)
(§8) (1 picture or pasted object on this page, not shown here)

nuclear DNA = experiment: Platinum adducts by ICP-MS in PBMCs from patients (carboplatin + talazoparib phase 1); format: in vivo
Experimental: as §1
The platinum adduct formation in PBMCs in 19 patients was linked to carboplatin concentrations in plasma using the Eq 1. […] In this model, we tested the hypothesis that PARPi interact with platinum formation. […] The formation of adducts correlated with the number of lymphocytes (P < 0.0001) and the gBRCA mutation status (P < 0.0001). […]
b). Technical aspects of the ICP-MS method development.
PBMCs were extracted from whole blood using by centrifugation. Lysis of red blood cells was performed as needed, then PMBCs were washed and resuspended in A limited number of 5-15 mL heparinised or EDTA whole blood samples from the PK study talazoparib/carboplatin phase 1 study were included. Following centrifugation for 15 min at 1,000 g, plasma was extracted and the PBS was added to a total volume of 9.5 ml to the remaing fraction. PMBCS were extracted using density-gradient centrifugation with Ficoll-Paque Plus® (Pharmacia, Uppsala, Sweden) at room temperature for 20 min at 400 g. PBMCs were washed twice with ice-cold PBS and centrifuged at 800 G for 5 minustes at 4 °C. Cells were counted and ther resuspended in 1 mL buffer containing 10 mmol L−1 Tris- HCl, 2.3% (w/v) NaCl, and 2 mmol L−1 EDTA disodium salt at pH 7.3.
DNA extraction procedure:
The DNA extraction was based on previous publications. 4 In short, 44 μL 1 mol L −1 NH4HCO3, 20 μL 20% (w/v) SDS, and 6 μL 1% (w/v) proteinase K solution were added successively, and incubated for 24hours using a thermomixer. After the digestion was complete, 146 μL saturated 6 mol L−1 NaCl was added to each tube and the tubes were shaken vigorously to precipitate proteins. The tubes were centrifuged for 10min at 2000 g and the supernatant containing the DNA was transferred to another tube. Subsequently, the supernatant was shaken, centrifuged, and transferred to another tube. Following this, 1.5ml absolute ethanol was added to precipitate the DNA and centrifuged from 30 minutes at 21 Kg at 4°C. The DNA was washed twice with 75% ethanol and was subsequently dissolved in 30 μL water. DNA concentrations were analyzed by measuring the absorbance at 260 nm using Nanodrop 1000 spectophotometer (NanoDrop).
Carboplatin adduct quantification:
The quantity of the carboplatin-adducts per mg DNA was quantified (Figure S8) using a previously validated […]
Figure S8: Example graph of mass spectrum of platinum in DNA extraction by ICP-MS.
as §8, §2, §3, §4, §5, §6, §7

N.N.O=C([O-])C1(C(=O)[O-])CCC1.[Pt+2] [carboplatin]
Clearance and volume of distribution of carboplatin with co-dosed veliparib (drug-drug interaction) ([1]; 0, 20 or 60 mg/kg veliparib doses): not significantly different | Half-life (t1/2) ([1]; beige SCID mice plasma): 0.35 h | CL ([1]; mice plasma): 34.2 mL/h | Interindividual variability on CL ([1]; mice plasma): 6% | Vd ([1]; mice plasma): 17.5 mL | Half-life carboplatin in plasma [2]: 2.1 h | Q [2]: 0.324 L/h | Q2 [2]: 16.7 L/h | V1 [2]: 0.935 L | V2 [2]: 52.8 L | CLday15 ([2]; day 15): 5.33 L/h | CLday1 ([2]; single agent day 1): 5.2 L/h | RPT, ratio of adducts compared to plasma concentration (nuclear DNA; 19 patients): 0.5% | Median conc. (RSE %), carboplatin adducts (nuclear DNA; PBMCs from patients, ICP-MS): 0.0552 (30%) μmol/g DNA | Ratio of adducts in PBMCs/plasma concentration (nuclear DNA; five gBRCA carriers): 0.64% | Ratio of adducts in PBMCs/plasma concentration (nuclear DNA; nine non-carriers): 0.29% | RPT (%) carboplatin adducts, model estimate (nuclear DNA; non-carriers, Supplementary Table 2): 1.20% | Median platinum adducts (nuclear DNA; patient PBMC samples): 55.2 nmol/g DNA | Time platinum adducts remain detectable post dose (nuclear DNA; patient PBMC samples): up to 15 days | Median platinum adducts, equivalent per blood volume (nuclear DNA; patient PBMC samples, per L blood): 81.4 pg/L | Inter-individual variability on platinum adduct formation (RPT) (nuclear DNA; patients): 317% | Adduct formation, single-agent treatment at day 1 versus combination with talazoparib (nuclear DNA; patients PBMCs): no statistical difference | KPT, formation rate of adducts from plasma (nuclear DNA; patients PBMCs): 0.0156 L/h
